From the NIST ThermoML archive (doi:10.1021/acs.jced.5b00051)

Assay: molar heat capacity at constant pressure
Conditions: 101.33 kPa, Liquid, Large sample (1 g) DSC

COCCOCCOCCOCCO [3,6,9,12-tetraoxatridecanol]
Conditions | molar heat capacity at constant pressure [J/K/mol]
275.15 K | 445.4
277.15 K | 445.6
279.15 K | 445.8
281.15 K | 446
283.15 K | 446.2
285.15 K | 446.5
287.15 K | 446.8
289.15 K | 447.1
291.15 K | 447.4
293.15 K | 447.7
295.15 K | 448.1
297.15 K | 448.4
298.15 K | 448.6
299.15 K | 448.8
301.15 K | 449.2
303.15 K | 449.6
305.15 K | 450
307.15 K | 450.5
309.15 K | 451
311.15 K | 451.5
313.15 K | 452
315.15 K | 452.5
317.15 K | 453
319.15 K | 453.6
321.15 K | 454.2
323.15 K | 454.8
325.15 K | 455.4
327.15 K | 456
329.15 K | 456.6
331.15 K | 457.3
333.15 K | 458
335.15 K | 458.7
337.15 K | 459.4
339.15 K | 460.1

CCCCOCCOCCO [3,6-dioxa-1-decanol]
Conditions | molar heat capacity at constant pressure [J/K/mol]
275.15 K | 351.2
277.15 K | 351.9
279.15 K | 352.7
281.15 K | 353.4
283.15 K | 354.2
285.15 K | 354.9
287.15 K | 355.7
289.15 K | 356.5
291.15 K | 357.3
293.15 K | 358.1
295.15 K | 359
297.15 K | 359.8
298.15 K | 360.2
299.15 K | 360.6
301.15 K | 361.5
303.15 K | 362.4
305.15 K | 363.3
307.15 K | 364.2
309.15 K | 365.1
311.15 K | 366
313.15 K | 366.9
315.15 K | 367.9
317.15 K | 368.8
319.15 K | 369.8
321.15 K | 370.8
323.15 K | 371.8
325.15 K | 372.8
327.15 K | 373.8
329.15 K | 374.8
331.15 K | 375.8
333.15 K | 376.9
335.15 K | 377.9
337.15 K | 379
339.15 K | 380.1

CCOCCOCCO [3,6-dioxa-1-octanol]
Conditions | molar heat capacity at constant pressure [J/K/mol]
275.15 K | 296.5
277.15 K | 296.8
279.15 K | 297.2
281.15 K | 297.6
283.15 K | 298
285.15 K | 298.5
287.15 K | 298.9
289.15 K | 299.4
291.15 K | 299.9
293.15 K | 300.4
295.15 K | 300.9
297.15 K | 301.4
298.15 K | 301.7
299.15 K | 301.9
301.15 K | 302.5
303.15 K | 303.1
305.15 K | 303.7
307.15 K | 304.3
309.15 K | 304.9
311.15 K | 305.5
313.15 K | 306.2
315.15 K | 306.9
317.15 K | 307.5
319.15 K | 308.2
321.15 K | 309
323.15 K | 309.7
325.15 K | 310.4
327.15 K | 311.2
329.15 K | 312
331.15 K | 312.8
333.15 K | 313.6
335.15 K | 314.4
337.15 K | 315.2
339.15 K | 316.1
